According to US10947252B2, “Inhibitors of KEAP1-Nrf2 protein-protein interaction” (Janssen Pharmaceutica NV, priority 2018, dated 2021):
pEC50, pKd: −log10 of the molar value.

Legend:
[1] = target: Kelch domain of human KEAP1 (321-624 aa) (Homo sapiens (Human), UniProt Q14145); assay: KEAP1 KELCH ThermoFluor binding assay; details: KEAP Kelch […], 1,8-ANS, pH 7.0, average of results obtained, read-out: Tf Kd;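 further: Ligand-induced melting temperature shift of E. coli-expressed KEAP1 Kelch protein, Kd estimated from concentration-response curves of ΔTm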
[2] = test system: Glo-Response ARE-luc2P HEK293 cell line; assay: ARE luciferase reporter cell-based assay; details: Homo sapiens, HEK293, 24 h, average of results obtained;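 further: luciferase signal tracks Nrf2 activation of the ARE once compounds disrupt KEAP1-Nrf2 binding, read with One-Glo reagent, DMSO serving as low control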

Chain of Kelch domain of human KEAP1 (321-624 aa) (Q14145 321-624): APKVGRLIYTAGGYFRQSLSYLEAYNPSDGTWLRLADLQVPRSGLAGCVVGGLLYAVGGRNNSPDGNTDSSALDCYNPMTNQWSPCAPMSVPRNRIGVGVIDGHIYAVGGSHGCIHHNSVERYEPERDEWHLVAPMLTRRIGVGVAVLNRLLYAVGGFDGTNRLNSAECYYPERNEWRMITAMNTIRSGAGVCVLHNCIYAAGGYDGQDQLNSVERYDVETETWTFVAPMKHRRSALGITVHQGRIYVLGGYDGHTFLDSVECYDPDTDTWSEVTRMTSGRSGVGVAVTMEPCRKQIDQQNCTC

Question: With Cc1ccc([C@H](c2ccn3c(C(F)(F)F)nnc3c2C)C(C)(C)C(=O)O)cc1CN1CC2(CCOCC2)Oc2nc(N[C@H](C)CCO)ccc2S1(=O)=O (single isomer, unassigned) [Example 120, (*R)-3-(3-((7′-(((R)-4-Hydroxybutan-2-yl)amino)-1′,1′-dioxido-2,3,5,6-tetrahydrospiro[pyran-4,4′-pyrido[2,3-b][1,4,5]oxathiazepin]-2′(3′H)-yl)methyl)-4-methylphenyl)-2,2-dimethyl-3-(8-methyl-3-(trifluoromethyl)-[1,2,4[triazolo[4,3-a]pyridine-7-yl)propanoic Acid] as the compound, how does the pKd [1] read?
Answer: 5.07

Question: What about the pEC50 [2] of the same compound?
Answer: 4.71

Question: Which results are given for Cc1c([C@@H](CC(=O)O)c2ccc(Cl)c(CN3CC4CCCCN4c4ncccc4S3(=O)=O)c2)ccn2c(C(F)(F)F)nnc12 (single isomer, unassigned) [Example 84, (*S)-3-(4-Chloro-3-(((*S)-5,5-dioxido-7,7a,8,9,10,11-hexahydro-6H-dipyrido[2,1-d:2′,3′-][1,2,5]thiadiazepin-6-yl)methyl)phenyl)-3-(8-methyl-3-(trifluoromethyl)-[1,2,4]triazolo[4,3-a]pyridine-7-yl)propanoic Acid]?
Answer: pKd [1]: > 9.00; pEC50 [2]: 7.09

Question: Cc1cnc2c(c1)S(=O)(=O)N(Cc1cc([C@@H](c3cc4cc(C)nnc4n3C)C(C)(C)C(=O)O)ccc1C)CC1(CC1)O2 (single isomer, unassigned) [Example 330, (*S)-3-(3,7-Dimethyl-7H-pyrrolo[2,3-c]pyridazin-6-yl)-2,2-dimethyl-3-(4-methyl-3-((8′-methyl-1′,1′-dioxidospiro[cyclopropane-1,4′-pyrido[2,3-b][1,4,5]oxathiazepin]-2′(3′H)-yl)methyl)phenyl)propanoic Acid] was tested. Which pKd [1] did it give?
Answer: 5.80

Question: And the pEC50 [2]?
Answer: 5.12

Question: Which results are given for Cc1ccc([C@H](CC(=O)O)c2ccn3c(C(F)(F)F)nnc3c2)cc1CN1C[C@@H]2CCCN2c2ncccc2S1(=O)=O (single isomer, unassigned) [Example 254, (*S)-3-(3-(((S)-5,5-Dioxido-7a,8,9,10-tetrahydropyrido[2,3-f]pyrrolo[2,1-d][1,2,5]thiadiazepin-6(7H)-yl)methyl)-4-methylphenyl)-3-(3-(trifluoromethyl)-[1,2,4]triazolo[4,3-a]pyridin-7-yl)propanoic Acid]?
Answer: pKd [1]: > 9.00; pEC50 [2]: 5.47

Question: Cc1ccc([C@H](CC(=O)O)c2ccn3c(C(F)(F)F)nnc3c2C)cc1CN1C[C@@H]2CCCCN2c2ncccc2S1(=O)=O (single isomer, unassigned) [Example 290, (*S)-3-(3-(((*S)-5,5-Dioxido-7,7a,8,9,10,11-hexahydro-6H-dipyrido[2,1-d:2′,3′-f][1,2,5]thiadiazepin-6-yl)methyl)-4-methylphenyl)-3-(8-methyl-3-(trifluoromethyl)-[1,2,4]triazolo[4,3-a]pyridin-7-yl)propanoic Acid] was tested. Which pKd [1] did it give?
Answer: > 9.00

Question: What about the pEC50 [2] of the same compound?
Answer: 8.06

Question: With Cc1ccc([C@H](CC(=O)O)c2ccn3c(C(F)(F)F)nnc3c2C)cc1CN1CC2CCCCN2c2ncc(C#N)cc2S1(=O)=O (stereo in doubt) [Example 312, (*S)-3-(3-((3-Cyano-5,5-dioxido-7,7a,8,9,10,11-hexahydro-6H-dipyrido[2,1-d:2′,3′-f][1,2,5]thiadiazepin-6-yl)methyl)-4-methylphenyl)-3-(8-methyl-3-(trifluoromethyl)-[1,2,4]triazolo[4,3-a]pyridin-7-yl)propanoic Acid] as the compound, how does the pKd [1] read?
Answer: > 9.00

Question: And the pEC50 [2]?
Answer: 7.88

Question: Cc1cc2cc([C@H](CC(=O)O)c3ccc(C)c(CN4C[C@@H]5CCCN5c5ncccc5S4(=O)=O)c3)n(C)c2nn1 (single isomer, unassigned) [Example 439, (*R)-3-(3,7-Dimethyl-7H-pyrrolo[2,3-c]pyridazin-6-yl)-3-(3-(((S)-5,5-dioxido-7a,8,9,10-tetrahydropyrido[2,3-f]pyrrolo[2,1-d][1,2,5]thiadiazepin-6(7H)-yl)methyl)-4-methylphenyl)propanoic Acid] was tested. Which pKd [1] did it give?
Answer: 8.90

Question: And the pEC50 [2]?
Answer: 5.61
